According to ChEMBL document CHEMBL5346964, “Discovery of LNP1892: A Precision Calcimimetic for the Treatment of Secondary Hyperparathyroidism” (J Med Chem, 2023):

Key:
[1] = Microsomal stability in human liver microsomes assessed as parent compound remaining at 1 uM measured upto 30 mins in presence of NADPH by LC-MS/MS analysis; type: ADME, Microsome; conditions: liver microsomes, read-out: Stability
hERG [2] = target: T1, hERG (Homo sapiens, UniProt Q12809); test: Inhibition of hERG at 1 uM relative to control; type: toxicity
hERG [3] = target: T1, hERG; test: Inhibition of hERG at 10 uM relative to control; type: toxicity
[4] = target: T2, Extracellular calcium-sensing receptor (Homo sapiens, UniProt P41180); test: Agonist activity at human CaSR expresssed in HEK293 cells in presence of glucose by Fluo4NW dye based FLIPR assay; type: functional, cell-based
T2 sequence (P41180 whole entry): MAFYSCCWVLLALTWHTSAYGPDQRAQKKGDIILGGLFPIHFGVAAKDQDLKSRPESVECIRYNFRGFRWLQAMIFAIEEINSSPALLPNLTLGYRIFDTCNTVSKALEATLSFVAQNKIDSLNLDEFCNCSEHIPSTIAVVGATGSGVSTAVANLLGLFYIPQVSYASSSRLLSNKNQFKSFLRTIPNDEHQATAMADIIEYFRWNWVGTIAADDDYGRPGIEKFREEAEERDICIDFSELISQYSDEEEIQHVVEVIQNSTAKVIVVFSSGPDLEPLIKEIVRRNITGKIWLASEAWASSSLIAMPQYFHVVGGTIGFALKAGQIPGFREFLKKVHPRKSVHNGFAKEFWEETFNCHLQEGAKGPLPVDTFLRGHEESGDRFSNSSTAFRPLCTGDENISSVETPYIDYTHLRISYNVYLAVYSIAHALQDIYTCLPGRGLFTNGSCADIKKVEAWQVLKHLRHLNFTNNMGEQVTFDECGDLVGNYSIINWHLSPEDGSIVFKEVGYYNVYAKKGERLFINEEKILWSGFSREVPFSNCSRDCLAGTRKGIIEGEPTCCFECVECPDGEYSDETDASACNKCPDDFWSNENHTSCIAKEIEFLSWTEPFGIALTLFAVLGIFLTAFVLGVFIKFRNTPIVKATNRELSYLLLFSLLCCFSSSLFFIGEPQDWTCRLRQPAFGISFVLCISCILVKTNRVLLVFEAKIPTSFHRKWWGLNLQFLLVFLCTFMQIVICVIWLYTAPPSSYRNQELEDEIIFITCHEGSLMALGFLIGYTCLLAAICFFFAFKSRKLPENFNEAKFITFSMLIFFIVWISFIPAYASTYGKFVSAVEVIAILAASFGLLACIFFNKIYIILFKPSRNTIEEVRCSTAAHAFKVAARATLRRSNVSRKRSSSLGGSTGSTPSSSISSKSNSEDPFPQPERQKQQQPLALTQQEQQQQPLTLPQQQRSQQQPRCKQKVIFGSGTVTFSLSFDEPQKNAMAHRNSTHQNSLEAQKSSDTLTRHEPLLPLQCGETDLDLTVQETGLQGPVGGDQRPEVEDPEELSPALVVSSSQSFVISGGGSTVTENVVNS

[5] = Microsomal stability in rat liver microsomes assessed as parent compound remaining at 1 uM measured upto 30 mins in presence of NADPH by LC-MS/MS analysis; type: ADME, Microsome; conditions: read-out: Stability
CYP2D6 [6] = target: T3, CYP2D6 (Homo sapiens, UniProt P10635); test: Inhibition of CYP2D6 in human liver microsomes at 1 uM preincubated for 5 mins followed by NADPH addition by LC-MS/MS analysis relative to control; type: ADME, Microsome
CYP2D6 [7] = target: T3, CYP2D6; test: Inhibition of CYP2D6 in human liver microsomes at 10 uM preincubated for 5 mins followed by NADPH addition by LC-MS/MS analysis relative to control; type: ADME, Microsome

T3 sequence (P10635 whole entry): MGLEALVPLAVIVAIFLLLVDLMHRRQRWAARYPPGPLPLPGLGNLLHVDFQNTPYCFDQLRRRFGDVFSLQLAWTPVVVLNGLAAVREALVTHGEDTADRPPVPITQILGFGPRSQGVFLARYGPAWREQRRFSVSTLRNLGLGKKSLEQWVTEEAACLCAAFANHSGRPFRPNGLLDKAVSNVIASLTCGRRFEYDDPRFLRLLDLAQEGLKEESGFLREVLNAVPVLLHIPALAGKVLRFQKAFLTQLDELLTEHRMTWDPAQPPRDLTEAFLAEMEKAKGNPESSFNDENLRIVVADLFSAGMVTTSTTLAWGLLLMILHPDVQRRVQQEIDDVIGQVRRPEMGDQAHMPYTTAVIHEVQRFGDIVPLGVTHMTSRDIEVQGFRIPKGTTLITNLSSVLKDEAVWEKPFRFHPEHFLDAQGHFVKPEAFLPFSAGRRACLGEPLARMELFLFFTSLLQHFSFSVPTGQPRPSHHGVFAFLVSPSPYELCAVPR
T1 sequence (Q12809 whole entry): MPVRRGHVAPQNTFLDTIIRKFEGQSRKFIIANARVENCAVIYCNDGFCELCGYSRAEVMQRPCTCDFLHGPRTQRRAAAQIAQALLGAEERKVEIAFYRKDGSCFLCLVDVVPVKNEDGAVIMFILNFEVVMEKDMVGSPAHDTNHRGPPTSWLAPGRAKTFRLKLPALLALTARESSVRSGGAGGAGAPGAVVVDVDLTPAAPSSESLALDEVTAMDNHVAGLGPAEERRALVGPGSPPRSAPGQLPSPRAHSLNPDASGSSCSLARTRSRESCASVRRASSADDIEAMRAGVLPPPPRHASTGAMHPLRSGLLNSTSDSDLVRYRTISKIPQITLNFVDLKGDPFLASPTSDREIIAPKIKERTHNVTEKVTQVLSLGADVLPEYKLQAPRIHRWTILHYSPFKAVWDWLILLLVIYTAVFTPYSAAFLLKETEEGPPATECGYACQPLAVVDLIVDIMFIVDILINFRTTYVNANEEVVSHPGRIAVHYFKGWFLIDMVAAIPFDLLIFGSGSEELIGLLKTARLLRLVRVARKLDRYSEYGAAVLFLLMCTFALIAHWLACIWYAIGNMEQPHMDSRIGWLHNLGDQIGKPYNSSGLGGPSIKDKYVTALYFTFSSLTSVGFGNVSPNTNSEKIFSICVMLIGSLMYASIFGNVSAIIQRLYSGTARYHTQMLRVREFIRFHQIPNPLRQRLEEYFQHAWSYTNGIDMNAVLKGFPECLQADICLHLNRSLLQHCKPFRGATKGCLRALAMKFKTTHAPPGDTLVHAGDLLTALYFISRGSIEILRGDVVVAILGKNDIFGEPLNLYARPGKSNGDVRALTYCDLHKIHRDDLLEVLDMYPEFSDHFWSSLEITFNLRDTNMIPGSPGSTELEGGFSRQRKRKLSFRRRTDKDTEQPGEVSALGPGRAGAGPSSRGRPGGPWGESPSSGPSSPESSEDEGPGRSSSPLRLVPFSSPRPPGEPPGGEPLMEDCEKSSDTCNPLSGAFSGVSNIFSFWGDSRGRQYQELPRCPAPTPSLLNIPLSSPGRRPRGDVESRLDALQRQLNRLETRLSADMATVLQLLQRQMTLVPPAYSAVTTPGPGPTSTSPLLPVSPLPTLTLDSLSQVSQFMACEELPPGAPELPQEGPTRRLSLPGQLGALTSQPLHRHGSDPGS

Structure (SMILES)	remaining at 0.5 h, 1 µM [1]	EC50 ([4]; read-out: EC50)	remaining at 0.5 h, 1 µM [5]	inhibition at 1 µM (CYP2D6 [6])	inhibition at 10 µM (CYP2D6 [7])	also measured
Cc1ccc([C@H]2C[C@H](CN[C@H](C)c3cccc4ccccc34)Oc3ccccc32)cc1C(=O)O	–	58.5 nM	–	–	–	–
C[C@@H](NC[C@H]1C[C@@H](c2ccc(F)c(C(=O)O)c2)c2ccccc2O1)c1cccc2ccccc12	94%	–	40%	5%	25%	–
COc1ccc(N2CC(CN[C@H](C)c3cccc4ccccc34)Oc3ccccc32)cc1C(=O)O (mixture of isomers; form 2)	–	> 90 nM	–	–	–	–
C[C@@H](NCC1CN(c2ccccc2C(=O)O)c2ccccc2O1)c1cccc2ccccc12.Cl (mixture of isomers)	–	–	–	–	–	EC50 ([4]; hek293): Not Active
C[C@@H](NCC1CN(c2cccc(CCC(=O)O)c2)c2ccccc2O1)c1cccc2ccccc12.Cl (mixture of isomers)	–	70.4 nM	–	–	–	EC50 ([4]; hek293): Not Active
Cc1c(C(=O)O)cccc1[C@@H]1C[C@H](CN[C@H](C)c2cccc3ccccc23)Oc2ccccc21	47%	–	52%	7%	25%	–
Cc1cc(C(=O)O)cc(N2CC(CN[C@H](C)c3cccc4ccccc34)Oc3ccccc32)c1 (mixture of isomers; form 2)	–	169 nM	–	–	–	–
Cc1cc(C(=O)O)cc(N2CC(CN[C@H](C)c3cccc4ccccc34)Oc3ccccc32)c1 (mixture of isomers; form 1)	–	84.1 nM	–	–	–	–
C[C@@H](NCC1CN(c2cccc(CC(=O)O)c2)c2ccccc2O1)c1cccc2ccccc12 (stereo partly drawn)	–	104 nM	–	–	–	–
Cc1ccc(N2CC(CN[C@H](C)c3cccc4ccccc34)Oc3ccccc32)cc1C(=O)O (mixture of isomers)	–	71.4 nM	–	–	–	–
C[C@@H](NC[C@H]1C[C@@H](c2cccc(C(=O)O)c2)c2ccccc2O1)c1cccc2ccccc12	42%	–	31%	17%	35%	–
C[C@@H](NCC1CN(c2ccccn2)c2ccccc2O1)c1cccc2ccccc12 (stereo partly drawn)	2%	–	5%	85%	87%	–

The next lines start with results.

remaining at 0.5 h, 1 µM [1]	EC50 ([4]; read-out: EC50)	remaining at 0.5 h, 1 µM [5]	inhibition at 1 µM (CYP2D6 [6])	inhibition at 10 µM (CYP2D6 [7])	Structure (SMILES)	also measured
1%	53.4 nM	3%	87%	–	C[C@@H](NCC1CN(c2ccccc2)c2ccccc2O1)c1cccc2ccccc12 (mixture of isomers; form 1)	inhibition at 1 µM (hERG [2]): 14%; inhibition at 10 µM (hERG [3]): 26%
5%	–	0%	92%	93%	C[C@@H](NCC1CN(C)c2ccccc2O1)c1cccc2ccccc12 (stereo partly drawn)	inhibition at 1 µM (hERG [2]): 13%; inhibition at 10 µM (hERG [3]): 42%
–	114 nM	–	–	–	C[C@@H](NCC1CN(c2ccccc2)c2ccccc2O1)c1cccc2ccccc12 (mixture of isomers; form 2)	–
–	146 nM	–	–	–	C[C@@H](NCC1CN(c2cccc(C(=O)O)c2)c2ccccc2O1)c1cccc2ccccc12 (mixture of isomers; form 2)	–
6%	–	61%	–	–	C[C@@H](NCC1CN(c2ccc(F)c(C(=O)O)c2)c2ccccc2O1)c1cccc2ccccc12 (mixture of isomers; form 1)	inhibition at 1 µM (hERG [2]): 5%; inhibition at 10 µM (hERG [3]): 21%
–	90 nM	–	–	–	C[C@@H](NCC1CN(C(=O)c2ccccc2)c2ccccc2O1)c1cccc2ccccc12 (mixture of isomers; form 2)	–
10%	–	5%	78%	82%	C[C@@H](NCC1CN(CC(F)(F)F)c2ccccc2O1)c1cccc2ccccc12 (stereo partly drawn)	–
57%	–	31%	8%	24%	C[C@@H](NC[C@H]1C[C@H](c2cccc(C(=O)O)c2)c2ccccc2O1)c1cccc2ccccc12	–
–	> 300 nM	–	–	–	COc1ccc(N2CC(CN[C@H](C)c3cccc4ccccc34)Oc3ccccc32)cc1C(=O)O (mixture of isomers; form 1)	–
